Experimental data reported in paper PMC12523843, “Kuwanon A Targeted YWHAB in Hepatocellular Carcinoma Cells to Inhibit the Raf/MEK/ERK Signaling Pathway” (Cells, 2025).

Columns and labels:
[1] = system: HCC cells (MHCC97 H and SMMC 7721); experiment: Transwell migration (without Matrix-Gel) and invasion (with Matrix-Gel) assay; type: cell-based, human
Description: The Transwell assay measured the migration and invasion of cells by calculating the number of cells that passed through the material. Prior to the Transwell migration assay, cells were serum-starved in FBS-free culture medium for 24 h. The cells were then detached using trypsin, washed 1–2 times with PBS, and resuspended in DMEM. Approximately 50,000–100,000 cells were seeded into the upper chamber of the Transwell insert. The lower chamber was filled with 600 μL of complete medium containing the test compound. […] After incubation, the migrated cells on the lower membrane surface were fixed with 4% paraformaldehyde (PFA) and stained with 0.1% crystal violet. Non-migrated cells remaining in the upper chamber were carefully removed with a cotton swab. Finally, the stained cells were visualized under a microscope. If matrix gel was needed, it should be added according to the instructions (Beyotime, Shanghai, China) before the cells were seeded.

[2] = Renal and liver function tests in treated mice; type: in vivo, BALB/c-nu mice; details: KA-treated mice compared to DMSO controls
[3] = target: T1, YWHAB (Homo sapiens, UniProt P31946); experiment: Cell thermal shift assay (CETSA); type: binding; design: endogenous in cells; host or cells: MHCC97 H and SMMC 7721; details: high concentration of KA, 3 h, MHCC97 H and SMMC 7721, 44–65 °C
T1 sequence (P31946 1-246): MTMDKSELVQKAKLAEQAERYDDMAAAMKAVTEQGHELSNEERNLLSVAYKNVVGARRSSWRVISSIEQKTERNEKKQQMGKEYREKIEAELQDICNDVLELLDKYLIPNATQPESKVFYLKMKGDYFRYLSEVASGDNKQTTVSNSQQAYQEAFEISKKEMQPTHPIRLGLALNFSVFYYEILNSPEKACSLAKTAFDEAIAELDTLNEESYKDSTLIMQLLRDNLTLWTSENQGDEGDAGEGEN
Description: The cells were treated with a high concentration (3–4 times the IC50) of the drug for 2–4 h before being digested with trypsin. Then the cells were washed 1–2 times with PBS. Resuspend the cells in […] of PBS. Subsequently, divided them into eight portions, each containing 50 µL. Set the appropriate temperature range and gradient. In our research, the range of 44–65 °C was used. Each portion of cells was treated at the specified temperature for 3–5 min. Then, the cells were repeatedly frozen and thawed using liquid nitrogen. After high-speed centrifugation (20,000× g, 20 min), we took the top layer of supernatant. After adding an appropriate amount of loading buffer, we conducted the Western Blot assay. Quantitative analysis was used to determine whether the compound has enhanced the thermal stability of the target protein.

With `CC(C)=CCc1c(-c2ccc(O)c3c2OC(C)(C)C=C3)oc2cc(O)cc(O)c2c1=O` [KA, Kuwanon A] the “migration/invasion under YWHAB overexpression (wound healing and Transwell)” value ([1]; YWHAB-overexpressing HCC cells compared to normal tumor cells, KA 15 μM, 48 h) was “less effect of KA on the migration/invasion”, the “invasive capacity of HCC cells (Transwell)” value ([1]; with Matrix-Gel) was “inhibited the invasive capacity of HCC cells” and the “number of HCC cells migrating through the polycarbonate membrane (Transwell)” value ([1]; without Matrix-Gel) was “significant decrease in the number of HCC cells migrating”. For the same molecule, the “renal and liver function tests (ALB, total protein, GOT/AST, GPT/ALT)” value [2] was “no significant changes” and the “thermal stability of YWHAB (CETSA)” value [3] was “increased thermal stability of YWHAB”.
